In the NIST ThermoML archive (doi:10.1021/je900048r):
Several values for one entry are separate records, joined by “and”; a condition that tells them apart may be missing. Identical values can stand only once. Numbers after ± are expanded uncertainties.

Key:
[1] = Liquid, Other PVT measurement
[2] = xn = mol fraction of the nth substance listed; conditions: Liquid, Other PVT measurement, x2 = 0

## CC#N [acetonitrile]
[1]; 313.15 K, 200 kPa
  mass density: 755 ± 8 kg/m3
[1]; 313.15 K, 600 kPa
  mass density: 755 ± 8 kg/m3
[1]; 313.15 K, 1000 kPa
  mass density: 756 ± 8 kg/m3
[1]; 313.15 K, 1400 kPa
  mass density: 756 ± 8 kg/m3
[1]; 313.15 K, 1800 kPa
  mass density: 757 ± 8 kg/m3
[1]; 313.15 K, 2000 kPa
  mass density: 757 ± 8 kg/m3
[1]; 353.15 K, 200 kPa
  mass density: 710 ± 7 kg/m3
[1]; 353.15 K, 600 kPa
  mass density: 711 ± 7 kg/m3
[1]; 353.15 K, 1000 kPa
  mass density: 711 ± 7 kg/m3
[1]; 353.15 K, 1400 kPa
  mass density: 711 ± 7 kg/m3
[1]; 353.15 K, 1800 kPa
  mass density: 712 ± 7 kg/m3
[1]; 353.15 K, 2000 kPa
  mass density: 713 ± 7 kg/m3
[1]; 393.15 K, 600 kPa
  mass density: 664 ± 7 kg/m3
[1]; 393.15 K, 1000 kPa
  mass density: 664 ± 7 kg/m3
[1]; 393.15 K, 1400 kPa
  mass density: 665 ± 7 kg/m3
[1]; 393.15 K, 1800 kPa
  mass density: 666 ± 7 kg/m3
[1]; 393.15 K, 2000 kPa
  mass density: 666 ± 7 kg/m3
[1]; 433.15 K, 1000 kPa
  mass density: 611 ± 6 kg/m3
[1]; 433.15 K, 1400 kPa
  mass density: 612 ± 6 kg/m3
[1]; 433.15 K, 1800 kPa
  mass density: 614 ± 6 kg/m3
[1]; 433.15 K, 2000 kPa
  mass density: 614 ± 6 kg/m3
[1]; 473.15 K, 1800 kPa
  mass density: 550 ± 6 kg/m3
[1]; 473.15 K, 2000 kPa
  mass density: 552 ± 6 kg/m3

## CCCCn1cc[n+](C)c1.F[B-](F)(F)F [1-butyl-3-methylimidazolium tetrafluoroborate]
[1]; 293.15 K, 100 kPa
  mass density: 1198 ± 12 kg/m3
[1]; 313.15 K, 100 kPa
  mass density: 1183 ± 12 kg/m3
[1]; 313.15 K, 200 kPa
  mass density: 1185 ± 12 kg/m3
[1]; 313.15 K, 600 kPa
  mass density: 1186 ± 12 kg/m3
[1]; 313.15 K, 1000 kPa
  mass density: 1186 ± 12 kg/m3
[1]; 313.15 K, 1400 kPa
  mass density: 1186 ± 12 kg/m3
[1]; 313.15 K, 1800 kPa
  mass density: 1187 ± 12 kg/m3
[1]; 313.15 K, 2000 kPa
  mass density: 1186.93 ± 12 kg/m3 and 1187 ± 12 kg/m3
[1]; 353.15 K, 200 kPa
  mass density: 1159 ± 12 kg/m3
[1]; 353.15 K, 600 kPa
  mass density: 1160 ± 12 kg/m3
[1]; 353.15 K, 1000 kPa
  mass density: 1160 ± 12 kg/m3
[1]; 353.15 K, 1400 kPa
  mass density: 1160 ± 12 kg/m3
[1]; 353.15 K, 1800 kPa
  mass density: 1161 ± 12 kg/m3
[1]; 353.15 K, 2000 kPa
  mass density: 1160.82 ± 12 kg/m3 and 1161 ± 12 kg/m3
[1]; 393.15 K, 600 kPa
  mass density: 1135 ± 11 kg/m3
[1]; 393.15 K, 1000 kPa
  mass density: 1135 ± 11 kg/m3
[1]; 393.15 K, 1400 kPa
  mass density: 1135 ± 11 kg/m3
[1]; 393.15 K, 1800 kPa
  mass density: 1136 ± 11 kg/m3
[1]; 393.15 K, 2000 kPa
  mass density: 1135.92 ± 11 kg/m3 and 1136 ± 11 kg/m3
[1]; 433.15 K, 1000 kPa
  mass density: 1112 ± 11 kg/m3
[1]; 433.15 K, 1400 kPa
  mass density: 1112 ± 11 kg/m3
[1]; 433.15 K, 1800 kPa
  mass density: 1113 ± 11 kg/m3
[1]; 433.15 K, 2000 kPa
  mass density: 1113 ± 11 kg/m3
[1]; 473.15 K, 1800 kPa
  mass density: 1086 ± 11 kg/m3
[1]; 473.15 K, 2000 kPa
  mass density: 1087 ± 11 kg/m3

## O [water]
[1]; 313.15 K, 200 kPa
  mass density: 993 ± 10 kg/m3
[1]; 313.15 K, 2000 kPa
  mass density: 995 ± 10 kg/m3
[1]; 353.15 K, 200 kPa
  mass density: 975 ± 10 kg/m3
[1]; 353.15 K, 400 kPa
  mass density: 975 ± 10 kg/m3
[1]; 373.15 K, 800 kPa
  mass density: 963 ± 10 kg/m3
[1]; 373.15 K, 1200 kPa
  mass density: 963 ± 10 kg/m3
[1]; 393.15 K, 200 kPa
  mass density: 949 ± 10 kg/m3
[1]; 393.15 K, 400 kPa
  mass density: 949 ± 10 kg/m3
[1]; 393.15 K, 1600 kPa
  mass density: 950 ± 10 kg/m3
[1]; 393.15 K, 2000 kPa
  mass density: 950 ± 10 kg/m3
[1]; 433.15 K, 800 kPa
  mass density: 912 ± 9 kg/m3
[1]; 433.15 K, 1200 kPa
  mass density: 912 ± 9 kg/m3
[1]; 473.15 K, 1600 kPa
  mass density: 871 ± 9 kg/m3
[1]; 473.15 K, 2000 kPa
  mass density: 871 ± 9 kg/m3

## CCO [ethanol]
[1]; 313.15 K, 200 kPa
  mass density: 770 ± 8 kg/m3
[1]; 313.15 K, 600 kPa
  mass density: 770 ± 8 kg/m3
[1]; 313.15 K, 1000 kPa
  mass density: 770 ± 8 kg/m3
[1]; 313.15 K, 1400 kPa
  mass density: 771 ± 8 kg/m3
[1]; 313.15 K, 1800 kPa
  mass density: 771 ± 8 kg/m3
[1]; 313.15 K, 2000 kPa
  mass density: 772 ± 8 kg/m3
[1]; 353.15 K, 200 kPa
  mass density: 734 ± 7 kg/m3
[1]; 353.15 K, 600 kPa
  mass density: 734 ± 7 kg/m3
[1]; 353.15 K, 1000 kPa
  mass density: 735 ± 7 kg/m3
[1]; 353.15 K, 1400 kPa
  mass density: 735 ± 7 kg/m3
[1]; 353.15 K, 1800 kPa
  mass density: 736 ± 7 kg/m3
[1]; 353.15 K, 2000 kPa
  mass density: 738 ± 7 kg/m3
[1]; 393.15 K, 600 kPa
  mass density: 691 ± 7 kg/m3
[1]; 393.15 K, 1000 kPa
  mass density: 692 ± 7 kg/m3
[1]; 393.15 K, 1400 kPa
  mass density: 693 ± 7 kg/m3
[1]; 393.15 K, 1800 kPa
  mass density: 694 ± 7 kg/m3
[1]; 393.15 K, 2000 kPa
  mass density: 694 ± 7 kg/m3
[1]; 433.15 K, 1400 kPa
  mass density: 638 ± 6 kg/m3
[1]; 433.15 K, 1800 kPa
  mass density: 639 ± 6 kg/m3
[1]; 433.15 K, 2000 kPa
  mass density: 639 ± 6 kg/m3

## CCO [ethanol] + CCCCn1cc[n+](C)c1.F[B-](F)(F)F
[2]; 313.15 K, 200 kPa
  mass density: 770 ± 8 kg/m3
[2]; 313.15 K, 600 kPa
  mass density: 770 ± 8 kg/m3
[2]; 313.15 K, 1000 kPa
  mass density: 770 ± 8 kg/m3
[2]; 313.15 K, 1400 kPa
  mass density: 771 ± 8 kg/m3
[2]; 313.15 K, 1800 kPa
  mass density: 771 ± 8 kg/m3
[2]; 313.15 K, 2000 kPa
  mass density: 772 ± 8 kg/m3
[2]; 353.15 K, 200 kPa
  mass density: 734 ± 7 kg/m3
[2]; 353.15 K, 600 kPa
  mass density: 734 ± 7 kg/m3
[2]; 353.15 K, 1000 kPa
  mass density: 735 ± 7 kg/m3
[2]; 353.15 K, 1400 kPa
  mass density: 735 ± 7 kg/m3
[2]; 353.15 K, 1800 kPa
  mass density: 736 ± 7 kg/m3
[2]; 353.15 K, 2000 kPa
  mass density: 738 ± 7 kg/m3
[2]; 393.15 K, 600 kPa
  mass density: 691 ± 7 kg/m3
[2]; 393.15 K, 1000 kPa
  mass density: 692 ± 7 kg/m3
[2]; 393.15 K, 1400 kPa
  mass density: 693 ± 7 kg/m3
[2]; 393.15 K, 1800 kPa
  mass density: 694 ± 7 kg/m3
[2]; 393.15 K, 2000 kPa
  mass density: 694 ± 7 kg/m3
[2]; 433.15 K, 1400 kPa
  mass density: 638 ± 6 kg/m3
[2]; 433.15 K, 1800 kPa
  mass density: 639 ± 6 kg/m3
[2]; 433.15 K, 2000 kPa
  mass density: 639 ± 6 kg/m3

## CC#N [acetonitrile] + CCCCn1cc[n+](C)c1.F[B-](F)(F)F
[2]; 313.15 K, 200 kPa
  mass density: 755 ± 8 kg/m3
[2]; 313.15 K, 600 kPa
  mass density: 755 ± 8 kg/m3
[2]; 313.15 K, 1000 kPa
  mass density: 756 ± 8 kg/m3
[2]; 313.15 K, 1400 kPa
  mass density: 756 ± 8 kg/m3
[2]; 313.15 K, 1800 kPa
  mass density: 757 ± 8 kg/m3
[2]; 313.15 K, 2000 kPa
  mass density: 757 ± 8 kg/m3
[2]; 353.15 K, 200 kPa
  mass density: 710 ± 7 kg/m3
[2]; 353.15 K, 600 kPa
  mass density: 711 ± 7 kg/m3
[2]; 353.15 K, 1000 kPa
  mass density: 711 ± 7 kg/m3
[2]; 353.15 K, 1400 kPa
  mass density: 711 ± 7 kg/m3
[2]; 353.15 K, 1800 kPa
  mass density: 712 ± 7 kg/m3
[2]; 353.15 K, 2000 kPa
  mass density: 713 ± 7 kg/m3
[2]; 393.15 K, 600 kPa
  mass density: 664 ± 7 kg/m3
[2]; 393.15 K, 1000 kPa
  mass density: 664 ± 7 kg/m3
[2]; 393.15 K, 1400 kPa
  mass density: 665 ± 7 kg/m3
[2]; 393.15 K, 1800 kPa
  mass density: 666 ± 7 kg/m3
[2]; 393.15 K, 2000 kPa
  mass density: 666 ± 7 kg/m3
[2]; 433.15 K, 1000 kPa
  mass density: 611 ± 6 kg/m3
[2]; 433.15 K, 1400 kPa
  mass density: 612 ± 6 kg/m3
[2]; 433.15 K, 1800 kPa
  mass density: 614 ± 6 kg/m3
[2]; 433.15 K, 2000 kPa
  mass density: 614 ± 6 kg/m3
[2]; 473.15 K, 1800 kPa
  mass density: 550 ± 6 kg/m3
[2]; 473.15 K, 2000 kPa
  mass density: 552 ± 6 kg/m3
